{
  "source": "patent US8524745B2",
  "about": "(Allergan, Inc., priority 2011, dated 2013)",
  "biological_target": "T1, CCR2 (Homo sapiens, UniProt P41597)",
  "T1 construct": "expressed in transfected cells",
  "T1 sequence (P41597 whole entry, species assumed)": "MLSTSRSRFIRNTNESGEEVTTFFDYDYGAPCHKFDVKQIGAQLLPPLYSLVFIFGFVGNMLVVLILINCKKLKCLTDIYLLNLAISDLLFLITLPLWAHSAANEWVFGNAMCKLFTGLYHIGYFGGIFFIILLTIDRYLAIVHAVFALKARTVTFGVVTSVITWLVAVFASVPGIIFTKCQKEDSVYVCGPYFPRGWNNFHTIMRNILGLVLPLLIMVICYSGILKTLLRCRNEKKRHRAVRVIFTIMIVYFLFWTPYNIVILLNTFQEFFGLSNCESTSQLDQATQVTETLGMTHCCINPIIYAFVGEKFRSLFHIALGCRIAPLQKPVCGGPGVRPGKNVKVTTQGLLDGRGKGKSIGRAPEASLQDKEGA",
  "assay": "CCR2 calcium activity assay on FLIPR Tetra in HEK-Gqi5 cells stably expressing CCR2",
  "assay_type": "cell-based",
  "experimental": "HEK-Gqi5 cells stably expressing CCR2 were cultured in (DMEM high glucose, 10% FBS, 1% PSA, 400 μg/ml geneticin and 50 μg/ml hygromycin. Appropriate positive control chemokines (MCP-1, MIP1A or RANTES) was used as the positive control agonist for screening compound-induced calcium activity assayed on the FLIPR^Tetra. The drug plates were prepared in 384-well microplates using the EP3 and the MuItiPROBE robotic liquid handling systems. Compounds were synthesized and tested for CCR2 activity.",
  "note": "pIC50: −log10 of the molar value.",
  "data": [
    {"compound": "Cc1cccc(NS(=O)(=O)c2ccc3c(c2)c(=O)sn3C)c1NS(=O)(=O)c1cccs1", "note": "[1-methyl-N-{3-methyl-2-[(2-thienylsulfonyl)amino]phenyl}-3-oxo-1,3-dihydro-2,1-benzisothiazole-5-sulfonamide]", "values": [
      {"measurement": "CCR2 % ANTAG", "value": 86, "unit": "%"}
    ]},
    {"compound": "Cc1ccc(NS(=O)(=O)c2ccc3c(c2)c(=O)sn3C)c(NS(=O)(=O)c2cccs2)c1", "note": "[1-methyl-N-{4-methyl-2-[(2-thienylsulfonyl)amino]phenyl}-3-oxo-1,3-dihydro-2,1-benzisothiazole-5-sulfonamide]", "values": [
      {"measurement": "CCR2 % ANTAG", "value": 99, "unit": "%"},
      {"measurement": "pIC50", "value": 6.25}
    ]},
    {"compound": "Cc1ccc(NS(=O)(=O)c2cccs2)c(NS(=O)(=O)c2ccc3c(c2)c(=O)sn3C)c1", "note": "[1-methyl-N-{5-methyl-2-[(2-thienylsulfonyl)amino]phenyl}-3-oxo-1,3-dihydro-2,1-benzisothiazole-5-sulfonamide]", "values": [
      {"measurement": "CCR2 % ANTAG", "value": 102, "unit": "%"},
      {"measurement": "pIC50", "value": 6.42}
    ]},
    {"compound": "Cn1sc(=O)c2cc(S(=O)(=O)Nc3cccc4c3OCO4)ccc21", "note": "[N-1,3-benzodioxol-4-yl-1-methyl-3-oxo-1,3-dihydro-2,1-benzisothiazole-5-sulfonamide]", "values": [
      {"measurement": "CCR2 % ANTAG", "value": 73, "unit": "%"},
      {"measurement": "pIC50", "value": 5.71}
    ]},
    {"compound": "Cn1sc(=O)c2cc(S(=O)(=O)Nc3cccc4c3OC(F)(F)O4)ccc21", "note": "[N-(2,2-difluoro-1,3-benzodioxol-4-yl)-1-methyl-3-oxo-1,3-dihydro-2,1-benzisothiazole-5-sulfonamide]", "values": [
      {"measurement": "CCR2 % ANTAG", "value": 80, "unit": "%"},
      {"measurement": "pIC50", "value": 6.00}
    ]},
    {"compound": "Cn1sc(=O)c2cc(S(=O)(=O)Nc3cccc4c3OCCO4)ccc21", "note": "[N-(2,3-dihydro-1,4-benzodioxin-5-yl)-1-methyl-3-oxo-1,3-dihydro-2,1-benzisothiazole-5-sulfonamide]", "values": [
      {"measurement": "CCR2 % ANTAG", "value": 76, "unit": "%"},
      {"measurement": "pIC50", "value": 5.84}
    ]},
    {"compound": "COc1cccc(NS(=O)(=O)c2ccc3c(c2)c(=O)sn3C)c1OC", "note": "[N-(2,3-dimethoxyphenyl)-1-methyl-3-oxo-1,3-dihydro-2,1-benzisothiazolesulfonamide]", "values": [
      {"measurement": "CCR2 % ANTAG", "value": 55, "unit": "%"},
      {"measurement": "pIC50", "value": 5.42}
    ]},
    {"compound": "Cn1sc(=O)c2cc(S(=O)(=O)Nc3ccccc3NS(=O)(=O)c3cc(Cl)ccc3Cl)ccc21", "note": "[N-(2-{[(2,5-dichlorophenyl)sulfonyl]amino}phenyl)-1-methyl-3-oxo-1,3-dihydro-2,1-benzisothiazole-5-sulfonamide]", "values": [
      {"measurement": "CCR2 % ANTAG", "value": 99, "unit": "%"},
      {"measurement": "pIC50", "value": 5.74}
    ]},
    {"compound": "Cn1sc(=O)c2cc(S(=O)(=O)Nc3ccccc3NS(=O)(=O)c3ccccc3Cl)ccc21", "note": "[N-(2-{[(2-chlorophenyl)sulfonyl]amino}phenyl)-1-methyl-3-oxo-1,3-dihydro-2,1-benzisothiazole-5-sulfonamide]", "values": [
      {"measurement": "CCR2 % ANTAG", "value": 84, "unit": "%"},
      {"measurement": "pIC50", "value": 5.87}
    ]},
    {"compound": "Cn1sc(=O)c2cc(S(=O)(=O)Nc3ccccc3NS(=O)(=O)c3ccccc3F)ccc21", "note": "[N-(2-{[(2-fluorophenyl)sulfonyl]amino}phenyl)-1-methyl-3-oxo-1,3-dihydro-2,1-benzisothiazole-5-sulfonamide]", "values": [
      {"measurement": "CCR2 % ANTAG", "value": 103, "unit": "%"},
      {"measurement": "pIC50", "value": 6.44}
    ]},
    {"compound": "Cn1sc(=O)c2cc(S(=O)(=O)Nc3ccccc3NS(=O)(=O)c3ccc(Cl)c(Cl)c3)ccc21", "note": "[N-(2-{[(3,4-dichlorophenyl)sulfonyl]amino}phenyl)-1-methyl-3-oxo-1,3-dihydro-2,1-benzisothiazole-5-sulfonamide]", "values": [
      {"measurement": "CCR2 % ANTAG", "value": 92, "unit": "%"},
      {"measurement": "pIC50", "value": 6.28}
    ]},
    {"compound": "Cn1sc(=O)c2cc(S(=O)(=O)Nc3ccccc3NS(=O)(=O)c3cc(Cl)cc(Cl)c3)ccc21", "note": "[N-(2-{[(3,5-dichlorophenyl)sulfonyl]amino}phenyl)-1-methyl-3-oxo-1,3-dihydro-2,1-benzisothiazole-5-sulfonamide]", "values": [
      {"measurement": "CCR2 % ANTAG", "value": 95, "unit": "%"},
      {"measurement": "pIC50", "value": 5.59}
    ]},
    {"compound": "Cn1sc(=O)c2cc(S(=O)(=O)Nc3ccccc3NS(=O)(=O)c3cc(F)cc(F)c3)ccc21", "note": "[N-(2-{[(3,5-difluorophenyl)sulfonyl]amino}phenyl)-1-methyl-3-oxo-1,3-dihydro-2,1-benzisothiazole-5-sulfonamide]", "values": [
      {"measurement": "CCR2 % ANTAG", "value": 96, "unit": "%"},
      {"measurement": "pIC50", "value": 6.36}
    ]},
    {"compound": "Cn1sc(=O)c2cc(S(=O)(=O)Nc3ccccc3NS(=O)(=O)c3cccc(F)c3)ccc21", "note": "[N-(2-{[(3-fluorophenyl)sulfonyl]amino}phenyl)-1-methyl-3-oxo-1,3-dihydro-2,1-benzisothiazole-5-sulfonamide]", "values": [
      {"measurement": "CCR2 % ANTAG", "value": 100, "unit": "%"},
      {"measurement": "pIC50", "value": 5.62}
    ]},
    {"compound": "Cn1sc(=O)c2cc(S(=O)(=O)Nc3ccccc3NS(=O)(=O)c3cc(Cl)c(Cl)s3)ccc21", "note": "[N-(2-{[(4,5-dichloro-2-thienyl)sulfonyl]amino}phenyl)-1-methyl-3-oxo-1,3-dihydro-2,1-benzisothiazole-5-sulfonamide]", "values": [
      {"measurement": "CCR2 % ANTAG", "value": 89, "unit": "%"},
      {"measurement": "pIC50", "value": 6.44}
    ]},
    {"compound": "Cn1sc(=O)c2cc(S(=O)(=O)Nc3ccccc3NS(=O)(=O)c3ccc(Cl)cc3)ccc21", "note": "[N-(2-{[(4-chlorophenyl)sulfonyl]amino}phenyl)-1-methyl-3-oxo-1,3-dihydro-2,1-benzisothiazole-5-sulfonamide]", "values": [
      {"measurement": "CCR2 % ANTAG", "value": 99, "unit": "%"},
      {"measurement": "pIC50", "value": 5.97}
    ]},
    {"compound": "COc1ccc(S(=O)(=O)Nc2ccccc2NS(=O)(=O)c2ccc3c(c2)c(=O)sn3C)cc1", "note": "[N-(2-{[(4-methoxyphenyl)sulfonyl]amino}phenyl)-1-methyl-3-oxo-1,3-dihydro-2,1-benzisothiazole-5-sulfonamide]", "values": [
      {"measurement": "CCR2 % ANTAG", "value": 67, "unit": "%"},
      {"measurement": "pIC50", "value": 5.61}
    ]},
    {"compound": "Cn1sc(=O)c2cc(S(=O)(=O)Nc3ccccc3NS(=O)(=O)c3ccc(Cl)s3)ccc21", "note": "[N-(2-{[(5-chloro-2-thienyl)sulfonyl]amino}phenyl)-1-methyl-3-oxo-1,3-dihydro-2,1-benzisothiazole-5-sulfonamide]", "values": [
      {"measurement": "CCR2 % ANTAG", "value": 104, "unit": "%"},
      {"measurement": "pIC50", "value": 6.29}
    ]},
    {"compound": "Cn1sc(=O)c2cc(S(=O)(=O)Nc3ccc(Cl)c(Cl)c3)ccc21", "note": "[N-(3,4-dichlorophenyl)-1-methyl-3-oxo-1,3-dihydro-2,1-benzisothiazole-5-sulfonamide]", "values": [
      {"measurement": "CCR2 % ANTAG", "value": 94.08, "unit": "%"},
      {"measurement": "pIC50", "value": 5.93}
    ]},
    {"compound": "Cn1sc(=O)c2cc(S(=O)(=O)Nc3cccc(Cl)c3)ccc21", "note": "[N-(3-chlorophenyl)-1-methyl-3-oxo-1,3-dihydro-2,1-benzisothiazole-5-sulfonamide]", "values": [
      {"measurement": "CCR2 % ANTAG", "value": 84, "unit": "%"}
    ]},
    {"compound": "COc1cccc(NS(=O)(=O)c2ccc3c(c2)c(=O)sn3C)c1", "note": "[N-(3-methoxyphenyl)-1-methyl-3-oxo-1,3-dihydro-2,1-benzisothiazole-5-sulfonamide]", "values": [
      {"measurement": "CCR2 % ANTAG", "value": 84, "unit": "%"},
      {"measurement": "pIC50", "value": 5.61}
    ]},
    {"compound": "COc1cccc(S(=O)(=O)Nc2cc(Cl)c(Cl)cc2NS(=O)(=O)c2ccc3c(c2)c(=O)sn3C)c1", "note": "[N-(4,5-dichloro-2-{[(3-methoxyphenyl)sulfonyl]amino}phenyl)-1-methyl-3-oxo-1,3-dihydro-2,1-benzisothiazole-5-sulfonamide]", "values": [
      {"measurement": "CCR2 % ANTAG", "value": 92, "unit": "%"},
      {"measurement": "pIC50", "value": 6.19}
    ]},
    {"compound": "Cn1sc(=O)c2cc(S(=O)(=O)Nc3cc(Cl)c(Cl)cc3NS(=O)(=O)c3cc(Cl)c(Cl)s3)ccc21", "note": "[N-(4,5-dichloro-2-{[(4,5-dichloro-2-thienyl)sulfonyl]amino}phenyl)-1-methyl-3-oxo-1,3-dihydro-2,1-benzisothiazole-5-sulfonamide]", "values": [
      {"measurement": "CCR2 % ANTAG", "value": 103, "unit": "%"},
      {"measurement": "pIC50", "value": 5.63}
    ]},
    {"compound": "COc1ccc(S(=O)(=O)Nc2cc(Cl)c(Cl)cc2NS(=O)(=O)c2ccc3c(c2)c(=O)sn3C)cc1", "note": "[N-(4,5-dichloro-2-{[(4-methoxyphenyl)sulfonyl]amino}phenyl)-1-methyl-3-oxo-1,3-dihydro-2,1-benzisothiazole-5-sulfonamide]", "values": [
      {"measurement": "CCR2 % ANTAG", "value": 86, "unit": "%"},
      {"measurement": "pIC50", "value": 5.99}
    ]}
  ]
}
